Patent US7649013B2, “Methods of protecting against radiation injury” (priority 2003, dated 2010)

Columns and labels:
Format in all cases: in vivo
[1] = system: C57BL/6J inbred strain female mice; assay: Histologic spleen cellularity after whole body irradiation, hematoxylin-eosin sections (Example 7c); details: 40 mg/kg i.p. 0.5 hour before 5 Gy (nonlethal); five days after irradiation
Protocol: Spleen cellularity is qualitatively assessed following whole body gamma irradiation in mice, with and without pretreatment with β-lapachone, as follows. β-lapachone is prepared at 10 mg/ml in 40% hydroxypropyl-beta-cyclodextrin (HPBCD). C57BL/6J inbred strain female mice (4-5 weeks old) are organized into three groups of six mice each: Group I mice receive no radiation, no β-lapachone, and no carrier; Group II mice receive radiation and are injected with carrier (40% HPBCD 4 ml/kg body weight); and Group III mice are injected intraperitoneally at 0.5 hour before irradiation with β-lapachone (40 mg/kg body weight). Whole body irradiation of animals with 8 Gy (lethal radiation) or 5 Gy (sublethal radiation) of γ-rays is carried out in air at room temperature in a gamma chamber (Gammacell 40 Exactor), with a dose-rate of 1.05 Gy/min. This radiation dose is within the range of equivalent human exposures predicted in many scenarios of radiologic or nuclear terrorist attack. Following irradiation, animals are maintained in a climate-controlled animal facility. Three mice in each of Groups I, II, and III are sacrificed on day five following irradiation, and an analysis of splenic cellularity is performed for each. […] Splenic cellularity is qualitatively assessed in sections stained with hematoxylin-eosin following standard procedures.

[2] = system: C57BL/6J inbred strain female mice; assay: Survival after 8 Gy whole body γ-irradiation, intraperitoneal 40 mg/kg at varying time points (Example 5); details: for No. of animals surviving at 68 days post-irradiation: 8 animals; for Death rate (%): 68 days
Protocol: β-lapachone is prepared at 10 mg/ml in 40% hydroxypropyl-beta-cyclodextrin (HPBCD).
C57BL/6J inbred strain female mice (4-5 weeks old) are used. Animals are maintained in a climate-controlled animal facility.
The animals are injected intraperitoneally with β-lapachone (40 mg/kg body weight) either 0.5 hour, 1 hour, or 4 hours before irradiation, or 10 minutes or 1 hour after irradiation.
Whole body irradiation of animals with 8 Gy of γ-rays is carried out in air at room temperature in a gamma chamber (Gammacell 40 Exactor) with a dose-rate of 1.05 Gy/min. This radiation dose is within the range of equivalent human exposures predicted in many scenarios of radiologic or nuclear terrorist attack.
Mice are divided in following groups (each Group comprises eight mice receiving identical treatment):
Group III: Mice are injected with β-lapachone 40 mg/kg body weight 4 hours before radiation.
Group IV: Mice are injected with β-lapachone 40 mg/kg body weight 1 hour before radiation.
Group V: Mice are injected with β-lapachone 40 mg/kg body weight 0.5 hours before radiation.
Group VI: Mice are injected with β-lapachone 40 mg/kg body weight 10 minutes after radiation.
Group VII: Mice are injected with β-lapachone 40 mg/kg body weight 1 hour after radiation.
Animals are irradiated with 8 Gy at 1.05 Gy/min dose-rate. After irradiation mice are returned to their cage and observed on a regular basis. Exposure to γ-rays causes lethality in animals. Importantly, treatment with β-lapachone, especially at a level of 40 mg/kg either 4, 1, or 0.5 hours prior to irradiation, diminishes the death rate.

[3] = system: C57BL/6J inbred strain female mice; assay: Quantitative spleen cellularity after whole body irradiation, trypan blue exclusion count (Example 7b); details: 40 mg/kg i.p. 0.5 hour before 8 Gy; day five and eight; P=0.00035
Protocol: Spleen cellularity is quantitatively assessed following whole body gamma irradiation in mice, with and without pretreatment with β-lapachone, as follows. β-lapachone is prepared at 10 mg/ml in 40% hydroxypropyl-beta-cyclodextrin (HPBCD). C57BL/6J inbred strain female mice (4-5 weeks old) are organized into three groups of six mice each: Group I mice receive no radiation, no β-lapachone, and no carrier; Group II mice receive radiation and are injected with carrier (40% HPBCD 4 ml/kg body weight); and Group III mice are injected intraperitoneally at 0.5 hour before irradiation with β-lapachone (40 mg/kg body weight). […] Three mice in each of Groups I, II, and III are sacrificed on day five following irradiation, and a quantitative analysis of splenic cellularity is performed for each. The remaining mice are sacrificed on day eight following irradiation, and a quantitative analysis of splenic cellularity is performed for each.
For quantitative analysis for splenic cellularity, spleens are processed into single cell suspensions and erythrocytes are lysed in 2 ml lysis buffer (0.01 M KHCO3, 0.154 M NH4Cl, 0.01 mM EDTA). The remaining leukocytes are washed, suspended and counted in a hemacytometer using the trypan blue exclusion method.

[4] = system: C57BL/6J inbred strain female mice; assay: Radiation-induced leukopenia after whole body irradiation, leukocyte count (Example 8); details: for L % (percentage of lymphocytes) / M % (percentage of monocytes) / N % (percentage of neutrophils) / WBC: 40 mg/kg i.p. 0.5 hour before 8 Gy
Protocol: The effect of β-lapachone pre-treatment on radiation-induced leukopenia (e.g., radiation-induced neutropenia, monocytopenia, or lymphocytopenia, or subcombinations thereof) following whole body gamma irradiation in mice, with and without pretreatment with β-lapachone, is assessed as follows. β-lapachone is prepared at 10 mg/ml in 40% hydroxypropyl-beta-cyclodextrin (HPBCD). C57BL/6J inbred strain female mice (4-5 weeks old) are organized into three groups of six mice each: Group I mice receive no radiation, no β-lapachone, and no carrier; Group II mice receive radiation and are injected with carrier (40% HPBCD 4 ml/kg body weight); and Group III mice are injected intraperitoneally at 0.5 hour before irradiation with β-lapachone (40 mg/kg body weight). Whole body irradiation of animals with 8 Gy (lethal radiation) or 5 Gy (sublethal radiation) of γ-rays is carried out in air at room temperature in a gamma chamber (Gammacell 40 Exactor), with a dose-rate of 1.05 Gy/min. This radiation dose is within the range of equivalent human exposures predicted in many scenarios of radiologic or nuclear terrorist attack. Following irradiation, animals are maintained in a climate-controlled animal facility. Three mice in each of Groups I, II, and III are sacrificed on day five following irradiation, and an analysis of radiation-induced leukopenia is performed for each. The remaining mice are sacrificed on day eight following irradiation, and an analysis of radiation-induced leukopenia is performed for each. Leukocytes are counted automatically using a hemacytometer counter in the animal facility at MIT.

[5] = 40 mg/kg i.p. 10 min after Radiation 8 Gy
[6] = 40 mg/kg i.p. 0.5 hr before Radiation 8 Gy
[7] = 40 mg/kg i.p. 1 hr after Radiation 8 Gy
[8] = 40 mg/kg i.p. 1 hr before Radiation 8 Gy
[9] = 40 mg/kg i.p. 4 hr before Radiation 8 Gy

CC1(C)CCC2=C(O1)c1ccccc1C(=O)C2=O [β-lapachone, 3,4-dihydro-2,2-dimethyl-2H-naphtho[1,2-b]pyran-5,6-dione]
Spleen structure and cellularity judged histologically (FIG. 10) [1]: protective effect on spleen structure and cellularity | Median survival time [2, 5]: 14 days | No. of animals surviving at 68 days post-irradiation [2, 5]: 0 | Death rate (%) [2, 5]: 100% | Median survival time ([2]; 40 mg/kg i.p. 0.5 hr before Radiation 8 Gy (no death)): >68 days | No. of animals surviving at 68 days post-irradiation [2, 6]: 8 | Death rate (%) [2, 6]: 0% | Median survival time [2, 7]: 16 days | No. of animals surviving at 68 days post-irradiation [2, 7]: 0 | Death rate (%) [2, 7]: 100% | Median survival time [2, 8]: 68 days | No. of animals surviving at 68 days post-irradiation [2, 8]: 4 | Death rate (%) [2, 8]: 50% | Median survival time [2, 9]: 21 days | No. of animals surviving at 68 days post-irradiation [2, 9]: 2 | Death rate (%) [2, 9]: 75% | Temporal survival pattern (FIG. 6) ([2]; 40 mg/kg i.p. at 0.5, 1.0 or four hours prior to 8 Gy, vs control decline at 16-20 days): delayed this early decline in survival | Splenic cellularity, quantitative (FIG. 9) [3]: significantly preserved cellularity | L % (percentage of lymphocytes) ([4]; Day 5): 66.24% | M % (percentage of monocytes) ([4]; Day 5): 8.13% | N % (percentage of neutrophils) ([4]; Day 5): 19.1% | WBC ([4]; Day 5): 0.53 ± 0.4 1000 cells/ml | L % (percentage of lymphocytes) ([4]; Day 8): 52.69% | M % (percentage of monocytes) ([4]; Day 8): 13.23% | N % (percentage of neutrophils) ([4]; Day 8): 20.29% | WBC ([4]; Day 8): 0.37 ± 0.24 1000 cells/ml | Protection against radiation-induced neutropenia, monocytopenia, and lymphocytopenia ([4]; pretreatment, 8 Gy, day 5 and day 8, P<0.05): partially protects
